Experimental data published in ChEMBL document CHEMBL1781873, “Synthesis and antibacterial property of pyrrolopyrano quinolinones and pyrroloquinolines” (2011).
Calls of active or inactive are those of the source. No cut-off for these calls is given here.

Legend:
Salmonella typhi [1] = test: Antibacterial activity against Salmonella typhi at 10 ug after 24 hrs by disc diffusion assay; type: functional, Salmonella enterica subsp. enterica serovar Typhi; conditions: Salmonella enterica, read-out: IZ
Salmonella typhi [2] = test: Antibacterial activity against Salmonella typhi at 15 ug after 24 hrs by disc diffusion assay; type: functional, Salmonella enterica subsp. enterica serovar Typhi; conditions: Salmonella enterica, read-out: IZ
Salmonella typhi [3] = test: Antibacterial activity against Salmonella typhi at 20 ug after 24 hrs by disc diffusion assay; type: functional, Salmonella enterica subsp. enterica serovar Typhi; conditions: Salmonella enterica, read-out: IZ
Salmonella typhi [4] = test: Antibacterial activity against Salmonella typhi at 25 ug after 24 hrs by disc diffusion assay; type: functional, Salmonella enterica subsp. enterica serovar Typhi; conditions: Salmonella enterica, read-out: IZ
Bacillus subtilis [5] = test: Antibacterial activity against Bacillus subtilis at 10 ug after 24 hrs by disc diffusion assay; type: functional; conditions: read-out: IZ
Bacillus subtilis [6] = test: Antibacterial activity against Bacillus subtilis at 15 ug after 24 hrs by disc diffusion assay; type: functional; conditions: read-out: IZ
Bacillus subtilis [7] = test: Antibacterial activity against Bacillus subtilis at 20 ug after 24 hrs by disc diffusion assay; type: functional; conditions: read-out: IZ
Bacillus subtilis [8] = test: Antibacterial activity against Bacillus subtilis at 25 ug after 24 hrs by disc diffusion assay; type: functional; conditions: read-out: IZ
Escherichia coli [9] = test: Inhibition of Escherichia coli DNA gyrase assessed as inhibition of DNA supercoiling activity using pBR322 DNA as substrate at […] after 3 hrs by agarose gel electrophoresis
Escherichia coli [10] = test: Inhibition of Escherichia coli DNA gyrase -mediated DNA relaxation using pBR322 DNA as substrate at […] after 1 hrs by agarose gel electrophoresis
Escherichia coli [11] = test: Inhibition of DNA gyrase mRNA expression in Escherichia coli measured up to 24 hrs by RT-PCR; type: functional, organism-based
Staphylococcus aureus [12] = test: Antibacterial activity against Staphylococcus aureus after 18 to 20 hrs by broth micro dilution assay; type: functional
Escherichia coli [13] = test: Antibacterial activity against Escherichia coli after 18 to 20 hrs by broth micro dilution assay; type: functional
Klebsiella pneumoniae [14] = test: Antibacterial activity against Klebsiella pneumoniae after 18 to 20 hrs by broth micro dilution assay; type: functional
Pseudomonas aeruginosa [15] = test: Antibacterial activity against Pseudomonas aeruginosa after 18 to 20 hrs by broth micro dilution assay; type: functional
Salmonella typhi [16] = test: Antibacterial activity against Salmonella typhi after 18 to 20 hrs by broth micro dilution assay; type: functional, Salmonella enterica subsp. enterica serovar Typhi; conditions: Salmonella enterica
Bacillus subtilis [17] = test: Antibacterial activity against Bacillus subtilis after 18 to 20 hrs by broth micro dilution assay; type: functional
Staphylococcus aureus [18] = test: Antibacterial activity against Staphylococcus aureus at 5 ug after 24 hrs by disc diffusion assay; type: functional; conditions: read-out: IZ
Staphylococcus aureus [19] = test: Antibacterial activity against Staphylococcus aureus at 10 ug after 24 hrs by disc diffusion assay; type: functional; conditions: read-out: IZ
Staphylococcus aureus [20] = test: Antibacterial activity against Staphylococcus aureus at 15 ug after 24 hrs by disc diffusion assay; type: functional; conditions: read-out: IZ
Staphylococcus aureus [21] = test: Antibacterial activity against Staphylococcus aureus at 20 ug after 24 hrs by disc diffusion assay; type: functional; conditions: read-out: IZ
Staphylococcus aureus [22] = test: Antibacterial activity against Staphylococcus aureus at 25 ug after 24 hrs by disc diffusion assay; type: functional; conditions: read-out: IZ
Escherichia coli [23] = test: Antibacterial activity against Escherichia coli at 5 ug after 24 hrs by disc diffusion assay; type: functional; conditions: read-out: IZ
Escherichia coli [24] = test: Antibacterial activity against Escherichia coli at 10 ug after 24 hrs by disc diffusion assay; type: functional; conditions: read-out: IZ
Escherichia coli [25] = test: Antibacterial activity against Escherichia coli at 15 ug after 24 hrs by disc diffusion assay; type: functional; conditions: read-out: IZ
Escherichia coli [26] = test: Antibacterial activity against Escherichia coli at 20 ug after 24 hrs by disc diffusion assay; type: functional; conditions: read-out: IZ
Escherichia coli [27] = test: Antibacterial activity against Escherichia coli at 25 ug after 24 hrs by disc diffusion assay; type: functional; conditions: read-out: IZ
Pseudomonas aeruginosa [28] = test: Antibacterial activity against Pseudomonas aeruginosa at 5 ug after 24 hrs by disc diffusion assay; type: functional; conditions: read-out: IZ
Pseudomonas aeruginosa [29] = test: Antibacterial activity against Pseudomonas aeruginosa at 10 ug after 24 hrs by disc diffusion assay; type: functional; conditions: read-out: IZ
Pseudomonas aeruginosa [30] = test: Antibacterial activity against Pseudomonas aeruginosa at 15 ug after 24 hrs by disc diffusion assay; type: functional; conditions: read-out: IZ
Pseudomonas aeruginosa [31] = test: Antibacterial activity against Pseudomonas aeruginosa at 20 ug after 24 hrs by disc diffusion assay; type: functional; conditions: read-out: IZ
Pseudomonas aeruginosa [32] = test: Antibacterial activity against Pseudomonas aeruginosa at 25 ug after 24 hrs by disc diffusion assay; type: functional; conditions: read-out: IZ
Klebsiella pneumoniae [33] = test: Antibacterial activity against Klebsiella pneumoniae at 5 ug after 24 hrs by disc diffusion assay; type: functional; conditions: read-out: IZ
Klebsiella pneumoniae [34] = test: Antibacterial activity against Klebsiella pneumoniae at 10 ug after 24 hrs by disc diffusion assay; type: functional; conditions: read-out: IZ
Klebsiella pneumoniae [35] = test: Antibacterial activity against Klebsiella pneumoniae at 15 ug after 24 hrs by disc diffusion assay; type: functional; conditions: read-out: IZ
Klebsiella pneumoniae [36] = test: Antibacterial activity against Klebsiella pneumoniae at 20 ug after 24 hrs by disc diffusion assay; type: functional; conditions: read-out: IZ
Klebsiella pneumoniae [37] = test: Antibacterial activity against Klebsiella pneumoniae at 25 ug after 24 hrs by disc diffusion assay; type: functional; conditions: read-out: IZ
Salmonella typhi [38] = test: Antibacterial activity against Salmonella typhi at 5 ug after 24 hrs by disc diffusion assay; type: functional, Salmonella enterica subsp. enterica serovar Typhi; conditions: Salmonella enterica, read-out: IZ

CCC1[C@@H]2c3c(c4ccccc4n(C)c3=O)OC(C)(C)[C@H]2CN1OS(=O)(=O)c1ccc(C)cc1 (mixture of isomers)
zone of inhibition at 10 µg/disc (Salmonella typhi [1]): 16 mm | zone of inhibition at 15 µg/disc (Salmonella typhi [2]): 18 mm | zone of inhibition at 20 µg/disc (Salmonella typhi [3]): 20 mm | zone of inhibition at 25 µg/disc (Salmonella typhi [4]): 22 mm | zone of inhibition at 10 µg/disc (Bacillus subtilis [5]): 7 mm | zone of inhibition at 15 µg/disc (Bacillus subtilis [6]): 9 mm | zone of inhibition at 20 µg/disc (Bacillus subtilis [7]): 10 mm | zone of inhibition at 25 µg/disc (Bacillus subtilis [8]): 12 mm | DNA gyrase inhibition (active/inactive) (Escherichia coli [9]): Active | inhibition (Escherichia coli [10]): Active | inhibition of gyrase mRNA expression (active/not active) (Escherichia coli [11]): Active | MIC50 (Staphylococcus aureus [12]): 0.5 µg/mL | MIC90 (Staphylococcus aureus [12]): 0.5 µg/mL | MIC50 (Escherichia coli [13]): 0.5 µg/mL | MIC90 (Escherichia coli [13]): 1 µg/mL | MIC50 (Klebsiella pneumoniae [14]): 0.5 µg/mL | MIC90 (Klebsiella pneumoniae [14]): 0.5 µg/mL | MIC50 (Pseudomonas aeruginosa [15]): 0.5 µg/mL | MIC90 (Pseudomonas aeruginosa [15]): 0.5 µg/mL | MIC50 (Salmonella typhi [16]): 0.5 µg/mL | MIC90 (Salmonella typhi [16]): 0.5 µg/mL | MIC50 (Bacillus subtilis [17]): 0.5 µg/mL | MIC90 (Bacillus subtilis [17]): 0.5 µg/mL | zone of inhibition at 5 µg/disc (Staphylococcus aureus [18]): 9 mm | zone of inhibition at 10 µg/disc (Staphylococcus aureus [19]): 12 mm | zone of inhibition at 15 µg/disc (Staphylococcus aureus [20]): 13 mm | zone of inhibition at 20 µg/disc (Staphylococcus aureus [21]): 14 mm | zone of inhibition at 25 µg/disc (Staphylococcus aureus [22]): 17 mm | zone of inhibition at 5 µg/disc (Escherichia coli [23]): 10 mm | zone of inhibition at 10 µg/disc (Escherichia coli [24]): 16 mm | zone of inhibition at 15 µg/disc (Escherichia coli [25]): 18 mm | zone of inhibition at 20 µg/disc (Escherichia coli [26]): 20 mm | zone of inhibition at 25 µg/disc (Escherichia coli [27]): 23 mm | zone of inhibition at 5 µg/disc (Pseudomonas aeruginosa [28]): 10 mm | zone of inhibition at 10 µg/disc (Pseudomonas aeruginosa [29]): 16 mm | zone of inhibition at 15 µg/disc (Pseudomonas aeruginosa [30]): 17 mm | zone of inhibition at 20 µg/disc (Pseudomonas aeruginosa [31]): 22 mm | zone of inhibition at 25 µg/disc (Pseudomonas aeruginosa [32]): 24 mm | zone of inhibition at 5 µg/disc (Klebsiella pneumoniae [33]): 20 mm | zone of inhibition at 10 µg/disc (Klebsiella pneumoniae [34]): 26 mm | zone of inhibition at 15 µg/disc (Klebsiella pneumoniae [35]): 30 mm | zone of inhibition at 20 µg/disc (Klebsiella pneumoniae [36]): 34 mm | zone of inhibition at 25 µg/disc (Klebsiella pneumoniae [37]): 36 mm | zone of inhibition at 5 µg/disc (Salmonella typhi [38]): 10 mm
